US11918628B2, “Controlled-release PTH compound” (ASCENDIS PHARMA BONE DISEASES A/S, priority 2016, dated 2024)

Assays:
rats = conditions: daily injections; cited from earlier work
[1] = system: patients with hypoparathyroidism; conditions: cited from earlier work
TPTx rats = test: 28-days study in thyroparathyroidectomised (TPTx) rats with daily subcutaneous injections of conjugate 18 or PTH(1-84); format: in vivo, rat
Experimental: Quantitative measurements of serum calcium (sCa), urinary calcium and serum phosporous (sP) were performed on a Roche-Hitachi P800 modular biochemistry instrument.
This study was performed in order to test and compare the effect of daily subcutaneous injection of compound 18 and PTH(1-84), the current standard of care, in an animal disease model relevant for investigating treatment of hypoparathyroidism (HP). Rats subjected to thyroparathyroidectomy (TPTx) by blunt dissection are unable to produce parathyroid hormone, PTH, the major regulator of calcium homeostasis. […] 17 weeks old female SD TPTx rats (n=9/group) were dosed subcutaneously for 28 days with compound 18 ([…]; 1.2 nmol/kg/d, in 10 mM succinic acid, 46 g/L mannitol, pH 4.0), PTH(1-84) (70 μg PTH eq/kg/d; 7.3 nmol/kg/d; in 10 mM citrate, mannitol 39.0 g/L, pH 5.0) or vehicle. Additionally, one group of sham operated rats (n=9) representing normophysiological background control were also given vehicle. Serum calcium (sCa) and phosporous (sP) levels in the animals were measured pre- and post-dose on days 1, 6, 12 and 27. Moreover, bone turnover markers (P1NP and CTx) were measured and bone quality assessed by ex vivo pQCT.

[2] = system: patients with hypoparathyroidism; conditions: cited from earlier work; remark: listed apart in the source
patients = conditions: 6-year follow-up; cited from earlier work

Molecule	osteosarcoma rate (rats)	daily dose with pump delivery, lower than with the twice daily injection regimen ([1]; pump delivery versus twice daily injection) [%]	calcium levels with pump delivery ([1]; pump delivery, over 6-months)	urinary calcium excretion with pump delivery ([1]; pump delivery)	trabecular and cortical BMD/bone in vertebrae after 28 days of treatment (TPTx rats; TPTx rats, 28 days daily sc)	trabecular BMD compared to both control groups (TPTx rats; TPTx rats, 28 days daily sc, 7.3 nmol/kg/d)	sCa ratio treated/sham-control at day 12 (TPTx rats; TPTx rats, daily sc, day 12)	effect on serum phosphorous (sP) (TPTx rats; TPTx rats, daily sc, compound 18 1.2 nmol/kg/d, PTH(1-84) 7.3 nmol/kg/d)	effect on serum calcium (sCa) (TPTx rats; TPTx rats, daily sc, compound 18 1.2 nmol/kg/d, PTH(1-84) 7.3 nmol/kg/d, versus vehicle-injected TPTx rats)	serum calcium (sCa) at day 12 (TPTx rats; female SD TPTx rats, daily sc, day 12) [mg/dL]	urinary calcium excretion 2-8 hours after injection ([2]; 2-8 hours after injection)	urinary calcium excretion over the 24-hour period ([2]; 24-hour period after injection)	urinary phosphate excretion ([2]; after injection)	participants who achieved normal blood calcium levels on reduced doses of calcium supplements and active forms of vitamin D ([2]; pivotal trial, once-daily sc, adjunct to vitamin D and calcium) [%]	patients who developed hypercalcemia at one or more measurements during a 24-hour period ([2]; serum calcium monitored after injection) [%]	incidences of hypercalcemia, hypocalcemia or hypercalciuria relative to conventional therapy ([2]; treated patients)	bone mineral density (BMD) by DXA (patients)	bone turnover markers (patients)
CC[C@H](C)[C@H](NC(=O)[C@H](CCC(=O)O)NC(=O)[C@H](CO)NC(=O)[C@@H](NC(=O)[C@@H](N)CO)C(C)C)C(=O)N[C@@H](CCC(N)=O)C(=O)N[C@@H](CC(C)C)C(=O)N[C@@H](CCSC)C(=O)N[C@@H](Cc1cnc[nH]1)C(=O)N[C@@H](CC(N)=O)C(=O)N[C@@H](CC(C)C)C(=O)NCC(=O)N[C@@H](CCCCN)C(=O)N[C@@H](Cc1cnc[nH]1)C(=O)N[C@@H](CC(C)C)C(=O)N[C@@H](CC(N)=O)C(=O)N[C@@H](CO)C(=O)N[C@@H](CCSC)C(=O)N[C@@H](CCC(=O)O)C(=O)N[C@@H](CCCN=C(N)N)C(=O)N[C@H](C(=O)N[C@@H](CCC(=O)O)C(=O)N[C@@H](Cc1c[nH]c2ccccc12)C(=O)N[C@@H](CC(C)C)C(=O)N[C@@H](CCCN=C(N)N)C(=O)N[C@@H](CCCCN)C(=O)N[C@@H](CCCCN)C(=O)N[C@@H](CC(C)C)C(=O)N[C@@H](CCC(N)=O)C(=O)N[C@@H](CC(=O)O)C(=O)N[C@H](C(=O)N[C@@H](Cc1cnc[nH]1)C(=O)N[C@@H](CC(N)=O)C(=O)N[C@@H](Cc1ccccc1)C(=O)O)C(C)C)C(C)C [PTH(1-34)]	dose dependent increase	65	normal, steady state calcium levels with minimal fluctuation	marked reduction	–	–	–	–	–	–	–	–	–	–	–	–	–	–
PTH(1-84): Natpara, PTH(1-84), polypeptide with the sequence of SEQ ID NO:1; the current standard of care	dose dependent increase	–	–	–	anabolic effect	significant increase	0.76	minimal decrease	did not lead to increase in sCa	8.1	reduced	did not change	increased only during the first 8 hours	42	71	has not demonstrated an ability to reduce	increases in lumbar spine and declines in the distal ⅓ radius	remained greater than pretreatment values
